Measurements reported in US9663508B2, “Biaryl acyl-sulfonamide compounds as sodium channel inhibitors” (AMGEN INC., priority 2013, dated 2017).

Legend:
human Nav1.7 = human Nav1.7 (Homo sapiens (Human), UniProt Q15858); assay: Nav 1.7 in vitro PatchXpress (PX) assay; type: cell-based; settings: in-vitro Nav 1.7 PX data
human Nav 1.5 = human Nav 1.5 (Homo sapiens (Human), UniProt Q14524); assay: Nav 1.5 IonWorks Quattro (IWQ) in vitro assay; type: cell-based; settings: in-vitro Nav 1.5 IWQ data; read-out: NAV 1.5 IWQ (IC50)
human Nav 1.5, sequence (Q14524 whole entry): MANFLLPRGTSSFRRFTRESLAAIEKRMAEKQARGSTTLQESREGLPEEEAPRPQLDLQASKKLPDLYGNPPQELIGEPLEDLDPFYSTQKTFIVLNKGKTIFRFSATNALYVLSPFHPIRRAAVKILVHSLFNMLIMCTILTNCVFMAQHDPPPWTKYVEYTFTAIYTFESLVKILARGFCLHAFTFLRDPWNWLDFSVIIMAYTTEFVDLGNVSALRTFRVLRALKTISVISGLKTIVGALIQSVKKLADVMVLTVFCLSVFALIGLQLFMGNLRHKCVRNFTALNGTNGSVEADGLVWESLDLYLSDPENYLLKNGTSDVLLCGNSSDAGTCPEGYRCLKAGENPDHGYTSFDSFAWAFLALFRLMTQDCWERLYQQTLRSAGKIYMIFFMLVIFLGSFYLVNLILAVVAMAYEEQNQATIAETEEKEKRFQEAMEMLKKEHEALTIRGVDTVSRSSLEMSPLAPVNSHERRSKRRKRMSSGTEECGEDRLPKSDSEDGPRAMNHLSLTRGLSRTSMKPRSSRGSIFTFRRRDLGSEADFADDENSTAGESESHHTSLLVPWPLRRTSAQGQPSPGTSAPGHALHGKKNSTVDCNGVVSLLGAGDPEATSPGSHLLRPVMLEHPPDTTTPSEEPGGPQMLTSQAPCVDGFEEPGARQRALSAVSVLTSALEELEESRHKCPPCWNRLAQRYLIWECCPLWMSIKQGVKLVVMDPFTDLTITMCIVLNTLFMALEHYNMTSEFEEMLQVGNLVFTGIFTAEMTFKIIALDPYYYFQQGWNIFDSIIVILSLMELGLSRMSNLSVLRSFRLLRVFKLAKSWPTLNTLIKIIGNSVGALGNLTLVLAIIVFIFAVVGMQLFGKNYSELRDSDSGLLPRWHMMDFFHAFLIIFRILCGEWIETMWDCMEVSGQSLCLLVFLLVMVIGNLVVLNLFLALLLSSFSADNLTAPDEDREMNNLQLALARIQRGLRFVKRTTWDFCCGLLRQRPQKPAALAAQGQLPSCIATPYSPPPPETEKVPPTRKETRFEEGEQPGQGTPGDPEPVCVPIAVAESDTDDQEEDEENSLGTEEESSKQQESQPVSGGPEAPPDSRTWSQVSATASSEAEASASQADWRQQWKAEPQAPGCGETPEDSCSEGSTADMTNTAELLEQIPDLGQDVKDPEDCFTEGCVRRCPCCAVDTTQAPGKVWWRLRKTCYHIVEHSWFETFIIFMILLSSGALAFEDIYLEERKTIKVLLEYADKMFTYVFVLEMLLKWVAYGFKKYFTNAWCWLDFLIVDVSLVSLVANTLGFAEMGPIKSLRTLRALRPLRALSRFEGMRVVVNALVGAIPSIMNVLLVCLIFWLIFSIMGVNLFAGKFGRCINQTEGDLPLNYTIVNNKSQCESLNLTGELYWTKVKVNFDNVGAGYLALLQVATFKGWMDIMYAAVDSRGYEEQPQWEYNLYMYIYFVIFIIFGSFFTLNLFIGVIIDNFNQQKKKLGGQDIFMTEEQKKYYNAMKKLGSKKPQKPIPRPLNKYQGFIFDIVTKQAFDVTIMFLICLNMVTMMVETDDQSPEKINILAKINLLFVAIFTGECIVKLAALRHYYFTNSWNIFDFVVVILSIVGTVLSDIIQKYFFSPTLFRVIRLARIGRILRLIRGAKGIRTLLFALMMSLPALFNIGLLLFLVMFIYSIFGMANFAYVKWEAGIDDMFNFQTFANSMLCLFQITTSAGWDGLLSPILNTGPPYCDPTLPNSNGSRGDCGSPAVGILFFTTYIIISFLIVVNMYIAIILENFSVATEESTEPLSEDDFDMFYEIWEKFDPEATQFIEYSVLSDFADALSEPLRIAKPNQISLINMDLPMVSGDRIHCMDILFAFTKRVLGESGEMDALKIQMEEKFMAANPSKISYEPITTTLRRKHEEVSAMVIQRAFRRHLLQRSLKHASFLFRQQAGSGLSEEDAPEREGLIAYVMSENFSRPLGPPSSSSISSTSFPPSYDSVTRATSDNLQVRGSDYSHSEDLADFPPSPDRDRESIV

human Nav1.7, sequence (Q15858 whole entry): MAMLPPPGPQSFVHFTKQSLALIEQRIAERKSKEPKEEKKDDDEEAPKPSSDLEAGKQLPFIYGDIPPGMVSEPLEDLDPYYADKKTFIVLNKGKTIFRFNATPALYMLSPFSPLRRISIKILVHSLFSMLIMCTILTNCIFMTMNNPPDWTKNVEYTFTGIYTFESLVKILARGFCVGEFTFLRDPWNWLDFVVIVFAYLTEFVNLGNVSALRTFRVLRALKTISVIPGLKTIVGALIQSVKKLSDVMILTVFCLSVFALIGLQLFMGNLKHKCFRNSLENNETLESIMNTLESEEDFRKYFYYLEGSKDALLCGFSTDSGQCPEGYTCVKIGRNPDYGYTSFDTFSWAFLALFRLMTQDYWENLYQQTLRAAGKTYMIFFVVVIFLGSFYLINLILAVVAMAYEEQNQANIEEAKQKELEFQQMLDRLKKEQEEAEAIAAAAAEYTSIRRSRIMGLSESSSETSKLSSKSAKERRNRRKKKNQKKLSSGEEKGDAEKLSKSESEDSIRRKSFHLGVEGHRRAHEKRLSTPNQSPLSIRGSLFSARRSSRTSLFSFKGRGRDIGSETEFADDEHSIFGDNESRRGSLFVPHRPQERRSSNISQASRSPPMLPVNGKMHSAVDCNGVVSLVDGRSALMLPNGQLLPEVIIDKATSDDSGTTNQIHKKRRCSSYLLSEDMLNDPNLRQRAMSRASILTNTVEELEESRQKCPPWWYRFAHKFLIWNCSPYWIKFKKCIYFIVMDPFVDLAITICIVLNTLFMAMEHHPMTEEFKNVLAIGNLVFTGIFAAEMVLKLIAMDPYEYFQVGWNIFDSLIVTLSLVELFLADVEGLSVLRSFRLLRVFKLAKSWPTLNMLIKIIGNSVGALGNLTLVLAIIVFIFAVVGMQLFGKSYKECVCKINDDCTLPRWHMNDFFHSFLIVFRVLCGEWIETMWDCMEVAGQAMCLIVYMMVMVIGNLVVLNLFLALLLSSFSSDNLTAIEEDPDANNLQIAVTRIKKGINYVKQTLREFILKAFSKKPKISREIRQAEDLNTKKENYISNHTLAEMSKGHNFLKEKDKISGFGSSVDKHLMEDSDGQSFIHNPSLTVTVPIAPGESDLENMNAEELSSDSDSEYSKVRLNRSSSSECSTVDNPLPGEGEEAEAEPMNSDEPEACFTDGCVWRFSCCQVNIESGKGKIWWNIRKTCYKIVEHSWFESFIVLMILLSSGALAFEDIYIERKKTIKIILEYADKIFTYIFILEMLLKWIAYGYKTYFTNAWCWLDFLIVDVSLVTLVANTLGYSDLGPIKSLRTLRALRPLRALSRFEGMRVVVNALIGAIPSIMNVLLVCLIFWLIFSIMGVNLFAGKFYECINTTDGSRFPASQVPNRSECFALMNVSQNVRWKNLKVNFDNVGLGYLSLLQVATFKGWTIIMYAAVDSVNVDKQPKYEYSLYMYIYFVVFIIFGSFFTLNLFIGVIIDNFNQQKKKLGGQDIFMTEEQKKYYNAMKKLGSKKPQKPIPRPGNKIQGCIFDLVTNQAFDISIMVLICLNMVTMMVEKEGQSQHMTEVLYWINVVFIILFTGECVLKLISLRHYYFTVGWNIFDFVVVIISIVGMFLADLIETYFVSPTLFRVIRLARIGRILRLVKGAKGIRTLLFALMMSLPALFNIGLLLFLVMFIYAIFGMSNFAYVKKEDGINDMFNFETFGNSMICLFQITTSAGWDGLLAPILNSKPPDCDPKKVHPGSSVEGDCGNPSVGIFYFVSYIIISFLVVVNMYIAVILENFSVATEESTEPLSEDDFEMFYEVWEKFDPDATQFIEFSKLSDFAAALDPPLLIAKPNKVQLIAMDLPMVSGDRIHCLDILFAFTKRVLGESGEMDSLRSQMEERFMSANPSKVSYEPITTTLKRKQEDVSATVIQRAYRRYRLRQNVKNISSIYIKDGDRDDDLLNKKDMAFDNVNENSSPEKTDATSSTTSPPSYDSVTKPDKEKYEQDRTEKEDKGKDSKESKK

IC50 (human Nav1.7): 82.8 nM
Structure (SMILES): COc1cc(C(=O)NS(C)(=O)=O)ccc1-c1cnc(Oc2cc(Cl)cc(Cl)c2)c(C)c1 [Example 841, 4-(6-(3,5-Dichlorophenoxy)-5-Methyl-3-Pyridinyl)-3-Methoxy-N-(Methylsulfonyl)Benzamide]
IC50 (human Nav 1.5): > 3000 nM
